Among the data in PubChem BioAssay (NCI) are GI50 and TGI values, retold here.

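Grown in 96-well plates, cells were treated for 48 hours with each compound at five concentrations. Insufficient inhibition: endpoint recorded as highest concentration tested. Here, GI50 denotes the concentration required for 50% inhibition of growth. TGI marks complete inhibition of growth.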

Holding throughout (experiment): NCI-60 cell line screen, 48 h
For assay [1], the system named is CCRF-CEM leukemia.
Assay [2] concerns HT29 colon.
In assay [3] the test system is 786-0 renal.
Assay [4] relates to ACHN renal.
In assay [5] the test system is SN12C renal.
Assay [6] concerns T-47D breast.
For assay [7], the system named is RXF 393 renal.
For assay [8], the system named is A549 NSCLC.
Assay [9] concerns M14 melanoma.
In assay [10] the test system is HCC-2998 colon.

As to `CCS(=O)(=O)N1CCN(c2ccc(Nc3ncc(C(N)=O)c(NC4CC4)n3)cc2)CC1`, the GI50 in assay [1] was 0.749 µM; in [2] it was 6.14 µM; in [3], 5.31 µM; in assay [4] it was 12.5 µM; in assay [5], 2.6 µM; in assay [6], 2.88 µM. The GI50 in assay [7] was 1.61 µM; in assay [8] it was 19 µM; in [9], 3.23 µM; in assay [10], 23.8 µM. Moreover, the TGI was 10.9 µM in assay [1]; 21.6 µM in assay [2]; more than 100 µM in assay [3]; 82.8 µM in assay [4]; 49.6 µM in assay [5]; 13.9 µM in assay [6]. The TGI was 9.46 µM in [7], more than 100 µM in [8], 69 µM in assay [9] and more than 100 µM in assay [10].

With `OCC1OC(n2cnc3c(NCc4ccccc4O)ncnc32)C(O)C1O` (stereo not given), the GI50 in assay [1] was 0.274 µM; in [2], 2.23 µM; in assay [3], 0.571 µM; in assay [4] it was 0.327 µM; in assay [5] it was 0.178 µM; in assay [6], 0.345 µM. Besides, the GI50 in [7] is 4.62 µM; in assay [8], 26.5 µM; in assay [9], 0.756 µM; in assay [10] it was 1.76 µM. The TGI in assay [1] was 33.6 µM; in [2], 52.9 µM; in [3] it was 7.7 µM; in assay [4] it was more than 44.4 µM; in assay [5], 20 µM; in [6], 4.87 µM. For the same compound, the TGI is more than 100 µM in assay [7], more than 100 µM in assay [8], 11.8 µM in assay [9] and 8.42 µM in [10].

Turning to `O=C(COc1cccc(/C=C2\Oc3ccc4ccccc4c3C2=O)c1)c1ccc([N+](=O)[O-])cc1`, the GI50 in [1] was 3.96 µM; in assay [2], 36 µM; in [3] it was 23.6 µM; in [4], 60.2 µM; in assay [5], 13.9 µM; in assay [6], 12.6 µM. Also, the GI50 in assay [7] is 10.6 µM; in assay [8] it was more than 100 µM; in assay [9], 18.3 µM; in [10], 15.7 µM. Moreover, the TGI was 17.4 µM in [1]; more than 100 µM in assay [2]; 62.3 µM in [3]; more than 100 µM in [4]; 32.5 µM in assay [5]; 38.3 µM in [6]. The TGI in [7] is 25.2 µM; in assay [8] it was more than 100 µM; in [9], 53.4 µM; in assay [10], more than 100 µM.

For the compound `C/C=C(\C)C(=O)O[C@@H]1C=CC(=O)O[C@H]1CNC(=O)[C@H](C)O`, the GI50 in assay [1] is 6.1 µM; in assay [2] it was 17.7 µM; in [3], 23.6 µM; in assay [4], 15.9 µM; in assay [5], 26.9 µM; in assay [6], 21.9 µM. The GI50 in assay [7] is 18.3 µM; in [8], 30.5 µM; in assay [9] it was 18.6 µM; in [10] it was 20.4 µM. Also, the TGI is 26.2 µM in assay [1]; 40.6 µM in assay [2]; 73.5 µM in assay [3]; 31.2 µM in assay [4]; more than 75.6 µM in assay [5]; more than 66.8 µM in assay [6]. In addition, the TGI is 42.9 µM in assay [7], more than 88.4 µM in assay [8], 49.1 µM in assay [9] and 40.9 µM in assay [10].

Consider `NS(=O)(=O)c1cc(C(=O)O)c(Cl)c([N+](=O)[O-])c1Cl`, for which the TGI in assay [1], in [2], in assay [3], in assay [4], in assay [5] and in assay [6] was more than 100 µM each time. The TGI in assay [7], in [8], in [9] and in assay [10] was more than 100 µM each time.

On to `CC(=O)/C=C/c1ccc(N(CCO)Cc2ccc(C(C)(C)C)cc2)cc1`, for which the GI50 is 49 µM in assay [1]; 27.7 µM in assay [2]; 51.3 µM in assay [3]; 50.1 µM in assay [4]; 38.7 µM in [5]; 31 µM in assay [6]. For the same compound, the GI50 in [7] was 65.5 µM; in assay [8], 56.5 µM; in assay [9], 48.9 µM; in assay [10] it was 152 µM. Besides, the TGI in [1] came to 208 µM; in [2], 103 µM; in assay [3], 184 µM; in assay [4] it was 170 µM; in assay [5], 157 µM; in [6], 161 µM. Besides, the TGI in assay [7] was 208 µM; in assay [8] it was 182 µM; in assay [9] it was 200 µM; in [10] it was 321 µM.

In the case of `O=C(Nc1cc2cc([N+](=O)[O-])ccc2oc1=O)c1cccs1`, the TGI is 78.3 µM in [1]; more than 100 µM in assay [2]; more than 100 µM in [3]; more than 100 µM in assay [4]; more than 100 µM in [5]; more than 100 µM in [6]. Further, the TGI in [7] is 34.4 µM; in [8] it was more than 100 µM; in assay [9], more than 100 µM; in assay [10], more than 100 µM.

As for `NCCCNc1nc2ccccc2c2c(=O)c3cc(F)cc(Cl)c3sc12`, the GI50 in assay [1] is 1.95 µM; in assay [2], 1.75 µM; in assay [3], 1.45 µM; in [4], 1.7 µM; in assay [5], 1.71 µM; in assay [6], 1.4 µM. Further, the GI50 in [7] is 1.62 µM; in assay [8], 1.8 µM; in assay [9], 1.78 µM; in [10], 1.79 µM. Moreover, the TGI was 4.58 µM in [1]; 3.29 µM in assay [2]; 2.9 µM in assay [3]; 3.07 µM in assay [4]; 3.24 µM in [5]; 4.23 µM in assay [6]. In addition, the TGI was 3.16 µM in [7], 3.55 µM in [8], 3.28 µM in [9] and 3.68 µM in [10].

Consider `CN(C)C/C=C/C(=O)Nc1cc2c(Nc3cccc(Cl)c3F)ncnc2cc1OCCOC(F)F`, for which the GI50 in assay [1] was 2.83 µM; in assay [2], 1.31 µM; in assay [3] it was 0.695 µM; in assay [4], less than 0.01 µM; in assay [5], 0.317 µM; in assay [6], 0.0376 µM. The GI50 was 0.566 µM in assay [7], 1.24 µM in assay [8], 3.08 µM in assay [9] and 2.1 µM in assay [10]. For the same compound, the TGI turned out to be 15.7 µM in assay [1]; 10.6 µM in assay [2]; 9.77 µM in assay [3]; 10.7 µM in assay [4]; 7.15 µM in assay [5]; 1.11 µM in assay [6]. Besides, the TGI in [7] was 2.71 µM; in assay [8] it was 12.7 µM; in assay [9], 14.3 µM; in assay [10], 10.9 µM.

`COC(=O)[C@H](CCCCNC(=O)OCc1ccccc1)NC(=O)[C@@H](NC(=O)Nc1cc(C(F)(F)F)cc(C(F)(F)F)c1)C(C)C`: the GI50 in assay [1], in assay [2], in assay [3], in assay [4], in [5] and in assay [6] was more than 10 µM throughout. For the same compound, the GI50 in [7], in [8], in assay [9] and in assay [10] was more than 10 µM in each case. Besides, the TGI in assay [1], in assay [2], in assay [3], in assay [4], in assay [5] and in assay [6] was more than 10 µM each time. In addition, the TGI in assay [7], in assay [8], in assay [9] and in assay [10] was more than 10 µM in each case.

For `N/C(=N/S(=O)(=O)c1cc(C(=O)Nc2ccc(F)cc2)c(Cl)cc1SCc1ccccc1)Nc1ccccc1O`, the GI50 in assay [1] is 1.81 µM; in assay [2] it was 11 µM; in assay [3] it was 2.3 µM; in assay [4] it was 18.9 µM; in assay [5], 1.88 µM; in assay [6], 7.3 µM. Further, the GI50 was 1.93 µM in assay [7], 2.36 µM in [8], 3.87 µM in assay [9] and 2.86 µM in assay [10]. Further, the TGI in assay [1] is 3.79 µM; in [2], more than 100 µM; in [3], 6.01 µM; in assay [4] it was more than 100 µM; in assay [5] it was 3.7 µM; in [6], 28.6 µM. Also, the TGI in assay [7] was determined as 3.94 µM; in [8], 4.71 µM; in assay [9], 14.4 µM; in assay [10] it was 7.34 µM.
